Legend:
Prostaglandin E synthase [1] = biological target: T1, Prostaglandin E synthase (Homo sapiens, UniProt O14684); assay: Inhibition of recombinant human mPGES-1 expressed in human 293E cell microsomes using PGH2 as substrate assessed as PGE2 production after 2.5 mins by LC/MS analysis
T1 sequence (O14684 whole entry): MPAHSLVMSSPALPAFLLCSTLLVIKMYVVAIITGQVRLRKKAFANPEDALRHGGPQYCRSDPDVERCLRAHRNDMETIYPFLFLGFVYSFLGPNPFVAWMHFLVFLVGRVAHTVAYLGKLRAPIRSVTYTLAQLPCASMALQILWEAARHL

[2] = biological target: T2, Prostaglandin E synthase (Homo sapiens) (UniProt O14684); assay: Binding affinity to mPGES-1 (unknown origin) assessed as increase in protein aggregation temperature at 0.1 mM by differential static light scattering method
T2 sequence (whole entry): T1 sequence (O14684 whole entry)

Prostaglandin E synthase [3] = biological target: T1, Prostaglandin E synthase; assay: Inhibition of purified mPGES-1 (1 to 152) (unknown origin) extracted from detergent-solubilized baculovirus-infected insect Sf9 cell membranes using PGH2 as substrate assessed as PGE2 production after 2.5 mins by LC/MS analysis

| IC50 (Prostaglandin E synthase [1]) [nM] | deltaT [2] [°C] | IC50 (Prostaglandin E synthase [3]) [nM] | SMILES |
| --- | --- | --- | --- |
| 7 | 7.8 | 3940 | Fc1cccc(Cl)c1-c1nc(-c2ccc(C#Cc3ccc(C(F)(F)F)cc3)nc2)c(Br)[nH]1 |
| 216 | 7.3 | 2580 | CC(C)Oc1ccc(-n2c(C(=O)O)cc3cc(-c4ccc(C(C)(C)C)cc4)ccc32)cc1 |

— ChEMBL document CHEMBL3576807, “Crystal Structures of mPGES-1 Inhibitor Complexes Form a Basis for the Rational Design of Potent Analgesic and Anti-Inflammatory Therapeutics” (J Med Chem, 2015)
